This is an account of results in patent US8039585B2, “Therapeutic administration of the scrambled anti-angiogenic peptide C16Y” (The United States of America as represented by the …, priority 2004, dated 2011).

Ends that are not written are not given here.

In series [1] the test system is HUVECs. Briefly: Endothelial cell tube-forming assay on Matrigel. In kind it is cell-based, human. Also noted: key to Disruption of tube formation / Activity (tube formation, truncated C16Y peptides): +: tubes slightly affected; ++: tubes moderately affected; +++: tubes disrupted; ++++: tubes completely disrupted; −: tubes resemble control. The following applies: for Activity (tube formation, truncated C16Y peptides): truncated versions of C16Y, concentration not given; for Disruption of tube formation: 16 hours. The method, then: FIG. 3: Disruption of endothelial cell tube formation by C16Y peptide. 48-well plates were coated with 200 μl of Matrigel per well. Each well was treated with RPMI containing 24,000 human umbilical vein endothelial cells (HUVECS) and 100 mg/L endothelial cell growth factor in the presence of 10-75 μg/ml of C16 or scrambled C16 peptide for 16 hours. Control wells contained medium only. Cells were fixed and stained, and tube formation was scored by a blinded observer.
Tube-forming assays were performed as described previously (Ponce 2001). 48-well plates were coated with 200 μl/well of Matrigel (Gho 2001; Kubota 1988), a basement membrane matrix. HUVECs (24,000 cells/well) were plated in RPMI 1640 containing 10% bovine calf serum, defined and supplemented (HyClone Laboratories, Inc., Logan, Utah), along with 100 mg/liter of endothelial cell growth factor (Collaborative Biomedical). C16 or scrambled C16 peptides were added at concentrations ranging from 10-75 μg/ml. Control wells contained medium only. After 16 hours, cells were fixed and stained with Diff-Quick fixative (methanol) and solution II (6.25% (w/v) each of azure A and methylene blue) (Dade A G, Dudingen, Switzerland), and tube formation was scored by a blinded observer. Each peptide was tested at least in triplicate, and the assays were repeated a minimum of three times.
Tube formation assays were repeated using truncated versions of the C16Y peptide to determine the minimal active sequence of the peptide. The carboxyl end of C16Y was not necessary for activity, whereas the amino terminal aspartic acid was required. The minimal active sequence for the C16Y peptide is shown in SEQ ID NO: 2. Each of the peptides containing at least this 8 amino acid sequence (SEQ ID NOs: 1-5) inhibited tube formation.

In series [2] the test system is endothelial cell attachment to laminin-1. Description: Competition assay: block of endothelial cell adhesion to laminin-1. It counts as cell-based, human. The method, then:
FIG. 2: Ability of C16 and scrambled C16 peptides to block laminin-1 endothelial cell adhesion. 96-well plates were coated with laminin-1 (0.5 μg) in the presence of competing C16 or scrambled C16 peptides (0-100 μg/ml). Each wells was treated with 0.1 ml of RPMI containing 35,000 human umbilical vein endothelial cells (HUVECs) for 1.5 hours at 37° C. Unbound cells were decanted, and attached cells were stained with crystal violet and quantified by measuring their absorbance at 600 nm. […] Bars represent ±SD.
Competition experiments were done using 96-well plates coated with laminin-1 (0.5 μg) in the presence of 0-100 μg/ml of competing C16, C16S, C16J, C16L, or C16Y synthetic laminin peptide as specified. Control wells were coated with BSA only. Wells were contacted with 0.1 ml of RPMI 1640 containing 35,000 HUVECs. After a 1.5-hour incubation at 37° C., unbound cells were decanted and attached cells were fixed and stained with 20% methanol/0.2% crystal violet. Dishes were extensively rinsed, and bound dye was solubilized in 2% SDS and quantitated at 600 nm. Assays were done in triplicate at least three times.

Series [3] relates to human umbilical vein endothelial cells (HUVECs). Description: Endothelial cell adhesion to peptide-coated plates. It counts as cell-based. The note with it: 0-5 μg coated, 1.5 hours. The protocol:
FIG. 1: Endothelial cell adhesion by C16 and scrambled C16 peptides. 96-well plates were coated with either laminin-1 (0.5 μg), C16 peptide (0-5 μg), or scrambled C16 peptide (0-5 μg). Each well was rinsed with PBS, blocked with BSA, rinsed again with PBS, and then treated with 0.1 ml of RPMI containing 35,000 human umbilical vein endothelial cells (HUVECs) for 1.5 hours at 37° C. Unbound cells were decanted, and attached cells were stained with crystal violet and quantified by measuring their absorbance at 600 nm. Cells adhered to C16, C16S, and C16Y peptides. More cells adhered to C16Y than to any other peptide at all concentrations tested. Bars represent ±SD.
Endothelial cell adhesion assays were performed on 96-well plates coated overnight with either laminin-1 (0.5 μg) or synthetic laminin peptides C16, C16S, C16J, C16L, or C16Y (0-5 μg) as described previously (Malinda 1999). Wells were rinsed with PBS, blocked with 2 mg/ml of BSA, and rinsed again with PBS. Cell adhesion was performed using 0.1 ml of RPMI 1640 containing 35,000 HUVECs. After a 1.5-hour incubation period at 37° C., unbound cells were decanted and attached cells were fixed and stained with 20% methanol/0.2% crystal violet. Dishes were extensively rinsed, and bound dye was solubilized in 2% SDS and quantitated at 600 nm. Assays were done in triplicate at least three times.

Series [4] has as its system C16-induced angiogenesis in the chick CAM. Briefly: CAM assay, C16-induced angiogenesis. It counts as in vivo. The method, then:
FIG. 4: Inhibition of C16-induced angiogenesis by C16Y. 0.5 μg of angiogenic stimulator (C16 peptide) and varying concentrations of either C16S or C16Y peptides were applied to 10-day-old embryonated eggs in 5 μl of water. After 3 days, microphotographs were taken of the eggs to determine angiogenesis levels. Negative control eggs were treated with water only (panel a), while positive control eggs were treated with bFGF only (not shown). As expected, C16 peptide administered alone stimulated angiogenesis (panel d). […] When the amount of inhibitor peptide was lowered to 0.05 μg, C16Y peptide continued to inhibit angiogenesis (panel f), while C16S peptide had no effect (panel c).
The CAM assay was performed using 10-day-old embryonated eggs (CBT, Charlestown, Md.) as described previously (Gho 1999). On embryonal day 3, approximately 4 ml of ovalbumin was removed from each egg. After opening windows on embryonal day 10, the angiogenic stimulus (C16) and test competitor peptides in 5 μl of distilled water were applied to the CAM after drying on 13-mm diameter quartered plastic coverslips (Thermanox; Nalge, NUNC International, Naperville, Ill.). Three days later, the eggs were scored for a positive response and photographed. The positive control was bFGF, and the negative control was the vehicle water. Experiments were repeated twice using a minimum of 11 eggs for each data point.

Series [5] deals with bFGF-induced angiogenesis. Description: CAM assay, bFGF-induced angiogenesis. It counts as in vivo, chick. The note with it: 50 ng bFGF + 0.05 μg peptide. The method, then:
FIG. 5: Inhibition of bFGF-induced angiogenesis by C16Y. 50 ng of angiogenic stimulator (bFGF) and varying concentrations of either C16S or C16Y peptides were applied to 10-day old embryonated eggs in 5 μl of water, and CAMs were analyzed for the presence or absence of angiogenesis.
50 ng of angiogenic stimulator (bFGF) and varying concentrations of either C16S or C16Y peptides were applied to 10-day old embryonated eggs in 5 μl of water, and CAMs were analyzed after 3 days for the presence or absence of angiogenesis.

The nature of series [6]: Toxicity statement (no method described).
In series [7] the test system is tumor growth and lung colonization. The following applies: Fridman 1990; cited from earlier work.

Consider AVYIKYR [truncated version of C16Y], for which the “Activity (tube formation, truncated C16Y peptides)” value in series [1] is “−”.
For the substance “C16J: scrambled peptide of C16 (IKDYLTFARVKF-NH2) [Peptide C16J]”, the “Inhibitory activity on laminin-1 cell adhesion” value in series [2] (0-100 μg/ml competing peptide) is “little activity at all of the doses tested”. Also, in series [3], the “Endothelial cell adhesion to coated peptide” value is reported as “only weakly bound”. In series [1], the “Effect on endothelial tube formation” value is “no activity at lower doses and only slight tube disruption at higher concentrations”. In addition, the “Disruption of tube formation” value in series [1] (peptide concentration 10 μg/ml), in series [1] (peptide concentration 25 μg/ml), in series [1] (peptide concentration 50 μg/ml) and in series [1] (peptide concentration 75 μg/ml) was “−” throughout.
“C16L: scrambled peptide of C16 (LTFRAKVYFIKD-NH2) [Peptide C16L]”: the “Dose showing some inhibition of attachment to laminin-1” value in series [2] is over 75 µg/mL. Moreover, the “Endothelial cell adhesion to coated peptide” value in series [3] was “did not attach”. Also, the “Effect on endothelial tube formation” value in series [1] is “no activity at lower doses and only slight tube disruption at higher concentrations”. Further, the “Disruption of tube formation” value in series [1] (peptide concentration 10 μg/ml) is recorded as “−”; in series [1] (peptide concentration 25 μg/ml) it was “−”; in series [1] (peptide concentration 50 μg/ml), “+”; in series [1] (peptide concentration 75 μg/ml), “++”.
In the case of “C16S: scrambled peptide of C16, created as a negative control, with antagonist activity (KAFDITYVRLKF; Scrambled version of C16 peptide) [Peptide C16S, reference compound]”, the “Inhibitory effect on angiogenesis” value in series [4] (0.5 μg C16 + 0.05 μg inhibitor peptide) is recorded as “no longer generated an inhibitory effect”. The Reduction in angiogenesis in series [4] (0.5 μg C16 + 0.1 μg inhibitor peptide) amounted to 52%; in series [4] (0.5 μg C16 + 0.2 μg inhibitor peptide), 63%. In series [4] (peptide alone (C16: 0.5 μg)), the “Angiogenesis with peptide administered alone” value is reported as “neither C16Y (FIG. 4, panel e) nor C16S (data not shown) administered alone stimulated angiogenesis”. Further, in series [1] (10-75 μg/ml tested), the “Dose at which tube formation is disrupted (lowest active)” value was found to be 50 µg/mL. The “Disruption of tube formation” value in series [1] (peptide concentration 10 μg/ml) was “−”; in series [1] (peptide concentration 25 μg/ml), “−”; in series [1] (peptide concentration 50 μg/ml), “+++”; in series [1] (peptide concentration 75 μg/ml) it was “+++”. Besides, the “Inhibition of angiogenesis” value in series [5] is listed as “no ability to inhibit angiogenesis”.
As for DFKLF, the “Activity (tube formation, truncated C16Y peptides)” value in series [1] is recorded as “−”.
The same measure, in the same setting: the same measure for DFKLFA: “−”.
For the substance DFKLFAV [truncated version of C16Y], the “Activity (tube formation, truncated C16Y peptides)” value in series [1] is “−”.
With DFKLFAVY (DFKLFAVY-NH2), the “Activity (tube formation, truncated C16Y peptides)” value in series [1] is recorded as “++”.
The same measure, in the same setting: the same measure for DFKLFAVYI [truncated version of C16Y]: “++”; for DFKLFAVYIK [truncated version of C16Y]: “++”.
On the same count and under the same terms, the same measure for DFKLFAVYIKY [truncated version of C16Y]: “++”.
Consider “DFKLFAVYIKYR-NH2 [Peptide C16Y, DFKLFAVYIKYR]”, for which, in series [6], the “Toxicity” value was “not toxic”.
Take DRKL: in series [1], the “Activity (tube formation, truncated C16Y peptides)” value was “−”.
On the same count and under the same terms, the same measure for FAVYIKYR [truncated version of C16Y]: “−”.
Consider FKLFAVYIKYR [truncated version of C16Y], for which the “Activity (tube formation, truncated C16Y peptides)” value in series [1] is recorded as “−”.
With KLFAVYIKYR [truncated version of C16Y], the “Activity (tube formation, truncated C16Y peptides)” value in series [1] is “−”.
On the same count and under the same terms, then LFAVYIKYR [truncated version of C16Y], with “−”.
As to “SEQ ID NO: 6: peptide having the fibronectin sequence (residues 1023-1033) of c-elegans (DYKYFAVYYR) [reference compound]”, the “Effect on endothelial tube formation” value in series [1] is “no ability to block endothelial tube formation”.
Regarding VYIKYR, the “Activity (tube formation, truncated C16Y peptides)” value in series [1] is recorded as “−”.
In the case of YIGSR, in series [7], the “Activity lower than that of C16Y” value is recorded as about 10 fold.
Turning to YIKYR, the “Activity (tube formation, truncated C16Y peptides)” value in series [1] is reported as “−”.
